# Assay results reported in US5134137A, “Cephalosporin antibiotics” (The Upjohn Company, priority 1990, dated 1992).
# Like-named read-outs stand apart in the source and are kept apart here.
# Key:
# Assay type in all cases: cell-based
# [1] = system: Pasteurella hemolytica; assay: MIC (minimum inhibitory concentration), agar dilution, Pasteurella hemolytica
# Method: (§1) Stock solution of each test antibiotic compound were prepared to have a concentration of 2 mg. of the test compound per milliliter in sterile water of 0.1M ammonium acetate solution. The amount of each compound used was adjusted for base compound activity as calculated from the purity data for the selected batch of compound.
# (§2) The dilution procedure described by Washington and Sutter [Manual of Clinical Microbiology, 3rd, Edit. (Lennett, E. H. et al, Eds.), pp. 453-458 (1980), American Society for Microbiology, Washington, D.C.] was modified so that serial concentrations of 128 to 0.0625 microgram/ml. in sterile water was obtained. Then 1.5 ml. aliquots of these test antibiotic dilution mixtures are added to 13.5 molten (50° C.) Mueller-Hinton agar. Each resulting mixture is poured into 15×100 mm, sterile Petri plates and allowed to dry at room temperature overnight.
# (§3) Test bacterial cultures are maintained at -70° C. on glass beads. [See R. J. Yancey, Jr. et al, Amer. Jr. of Vet. Research, 48, No. 7, pp. 1050-1053, (1987)]. At least one bacteria-laden bead per culture is dropped into one ml. of brain heart infusion (BHI) broth for overnight culture at 37° C. in 5% V/V carbon dioxide in air atmosphere.
# (§4) On the data of assay, 2 to 8 drops of the bacterial broth cultures are transferred to fresh BHI broth (1 ml.) and the mixture is incubated for 4 to 6 hours at 37° C. in a 5% V/V carbon dioxide in air atmosphere. The resulting cultures are then diluted to match a 0.5 MacFarland standard and further diluted 1:20 V/V with sterile saline solution.
# (§5) A 0.001 ml. drop of the resulting mixture, containing approximately 10^3 to 10^4 colony forming units (CFU) of each test bacteria organism, is dispensed onto the surface of the test antibiotic compound test plates with a Steer's type replicator. The resulting innoculated plates are incubated 16 to 18 hours at 37° C. with a carbon dioxide atmosphere.
# as §1, with “Stock solutions” for “Stock solution”
# as §2, with “mm.” for “mm,”
# as §2, with “for Microbiology.” for “for Microbiology,”, “15×100 mm.” for “15×100 mm,”
# as §3, with “culture” for “cultures”
# (§6) On the day of assay, 2 to 8 drops of the bacterial broth cultures are transferred to fresh BHI broth (1 ml.) and the mixture is incubated for 4 to 6 hours at 37° C. in a 5% V/V carbon dioxide in air atmosphere. […]
# [2] = system: Pasteurella multocida; assay: MIC, agar dilution, Pasteurella multocida; conditions: strain UC9581
# Method: as §1, §2, §3, §4, §5
# as §1, with “Stock solutions” for “Stock solution”
# as §2, with “mm.” for “mm,”
# as §2, with “for Microbiology.” for “for Microbiology,”, “15×100 mm.” for “15×100 mm,”
# as §3, with “culture” for “cultures”
# as §6
# [3] = system: Escherichia coli; assay: MIC, agar dilution, Escherichia coli
# Method: as §1, §2, §3, §4, §5
# as §1, with “Stock solutions” for “Stock solution”
# as §2, with “mm.” for “mm,”
# as §2, with “for Microbiology.” for “for Microbiology,”, “15×100 mm.” for “15×100 mm,”
# as §3, with “culture” for “cultures”
# as §6
# [4] = system: Salmonella choleraesuis; assay: MIC, agar dilution, Salmonella choleraesuis
# Method: as §1, §2, §3, §4, §5
# as §1, with “Stock solutions” for “Stock solution”
# as §2, with “mm.” for “mm,”
# as §2, with “for Microbiology.” for “for Microbiology,”, “15×100 mm.” for “15×100 mm,”
# as §3, with “culture” for “cultures”
# as §6
# [5] = system: Salmonella typhimurium; assay: MIC, agar dilution, Salmonella typhimurium
# Method: as §1, §2, §3, §4, §5
# as §1, with “Stock solutions” for “Stock solution”
# as §2, with “mm.” for “mm,”
# as §2, with “for Microbiology.” for “for Microbiology,”, “15×100 mm.” for “15×100 mm,”
# as §3, with “culture” for “cultures”
# as §6
# [6] = system: Bordetella bronchiseptica; assay: MIC, agar dilution, Bordetella bronchiseptica; conditions: strain UC6313
# Method: as §1, §2, §3, §4, §5
# as §1, with “Stock solutions” for “Stock solution”
# as §2, with “mm.” for “mm,”
# as §2, with “for Microbiology.” for “for Microbiology,”, “15×100 mm.” for “15×100 mm,”
# as §3, with “culture” for “cultures”
# as §6
# [7] = system: Pseudomonas aeruginosa; assay: MIC, agar dilution, Pseudomonas aeruginosa
# Method: as §1, §2, §3, §4, §5
# as §1, with “Stock solutions” for “Stock solution”
# as §2, with “mm.” for “mm,”
# as §2, with “for Microbiology.” for “for Microbiology,”, “15×100 mm.” for “15×100 mm,”
# as §3, with “culture” for “cultures”
# as §6
# [8] = system: Staphylococcus aureus; assay: MIC, agar dilution, Staphylococcus aureus
# Method: as §1, §2, §3, §4, §5
# as §1, with “Stock solutions” for “Stock solution”
# as §2, with “mm.” for “mm,”
# as §2, with “for Microbiology.” for “for Microbiology,”, “15×100 mm.” for “15×100 mm,”
# as §3, with “culture” for “cultures”
# as §6
# [9] = system: Streptococcus agalactiae; assay: MIC, agar dilution, Streptococcus agalactiae
# Method: as §1, §2, §3, §4, §5
# as §1, with “Stock solutions” for “Stock solution”
# as §2, with “mm.” for “mm,”
# as §2, with “for Microbiology.” for “for Microbiology,”, “15×100 mm.” for “15×100 mm,”
# as §3, with “culture” for “cultures”
# as §6
# [10] = system: Streptococcus bovis; assay: MIC, agar dilution, Streptococcus bovis; conditions: strain UC6281
# Method: as §1, §2, §3, §4, §5
# as §1, with “Stock solutions” for “Stock solution”
# as §2, with “mm.” for “mm,”
# as §2, with “for Microbiology.” for “for Microbiology,”, “15×100 mm.” for “15×100 mm,”
# as §3, with “culture” for “cultures”
# as §6
# [11] = system: Streptococcus dysgalactiae; assay: MIC, agar dilution, Streptococcus dysgalactiae; conditions: strain UC251
# Method: as §1, §2, §3, §4, §5
# as §1, with “Stock solutions” for “Stock solution”
# as §2, with “mm.” for “mm,”
# as §2, with “for Microbiology.” for “for Microbiology,”, “15×100 mm.” for “15×100 mm,”
# as §3, with “culture” for “cultures”
# as §6
# [12] = system: Enterococcus faecium; assay: MIC, agar dilution, Enterococcus faecium; conditions: strain UC241
# Method: as §1, with “Stock solutions” for “Stock solution”
# as §2, §3, §4, §5, §1
# as §2, with “mm.” for “mm,”
# as §2, with “for Microbiology.” for “for Microbiology,”, “15×100 mm.” for “15×100 mm,”
# as §3, with “culture” for “cultures”
# as §6
# [13] = system: Enterococcus faecalis; assay: MIC, agar dilution, Enterococcus faecalis; conditions: strain UC694
# Method: as §1, with “Stock solutions” for “Stock solution”
# as §2, §3, §4, §5, §1
# as §2, with “mm.” for “mm,”
# as §2, with “for Microbiology.” for “for Microbiology,”, “15×100 mm.” for “15×100 mm,”
# as §3, with “culture” for “cultures”
# as §6
# [14] = system: Streptococcus suis; assay: MIC, agar dilution, Streptococcus suis; conditions: strain 650-2
# Method: as §1, §2, §3, §4, §5
# as §1, with “Stock solutions” for “Stock solution”
# as §2, with “mm.” for “mm,”
# as §2, with “for Microbiology.” for “for Microbiology,”, “15×100 mm.” for “15×100 mm,”
# as §3, with “culture” for “cultures”
# as §6
# [15] = system: Streptococcus uberis; assay: MIC, agar dilution, Streptococcus uberis
# Method: as §1, §2, §3, §4, §5
# as §1, with “Stock solutions” for “Stock solution”
# as §2, with “mm.” for “mm,”
# as §2, with “for Microbiology.” for “for Microbiology,”, “15×100 mm.” for “15×100 mm,”
# as §3, with “culture” for “cultures”
# as §6
# [16] = system: Corynebacterium pyogenes; assay: MIC, agar dilution, Corynebacterium pyogenes; conditions: strain 213-2
# Method: as §1, §2, §3, §4, §5
# as §1, with “Stock solutions” for “Stock solution”
# as §2, with “mm.” for “mm,”
# as §2, with “for Microbiology.” for “for Microbiology,”, “15×100 mm.” for “15×100 mm,”
# as §3, with “culture” for “cultures”
# as §6
# [17] = system: Micrococcus luteus; assay: MIC, agar dilution, Micrococcus luteus; conditions: strain UC130
# Method: as §1, §2, §3, §4, §5
# as §1, with “Stock solutions” for “Stock solution”
# as §2, with “mm.” for “mm,”
# as §2, with “for Microbiology.” for “for Microbiology,”, “15×100 mm.” for “15×100 mm,”
# as §3, with “culture” for “cultures”
# as §6
structure (smiles),measurement,setting,value
"CCSSCC1=C(C(=O)O)N2C(=O)C(NC(=O)C(=NOC)c3csc(N)n3)C2SC1 (stereo not drawn) [Example 10, 7-[2-(2-amino-1,3-thiazol-4-yl)-2-(methoxyimino)acetamido]-3-ethyldithiomethyl-3-cephem-4-carboxylic acid]",MIC,[1]; strain UC6531,0.25 µg/mL
same,MIC,[1]; strain UC6532,0.25 µg/mL
same,MIC,[1]; strain UC9582,0.5 µg/mL
same,MIC,[2],4 µg/mL
same,MIC,[3]; strain UC3784,4 µg/mL
same,MIC,[3]; strain UC6720,8 µg/mL
same,MIC,[3]; strain UC9670,4 µg/mL
same,MIC,[4]; strain UC6073,16 µg/mL
same,MIC,[4]; strain UC6077,32 µg/mL
same,MIC,[5]; strain UC6162,8 µg/mL
same,MIC,[5]; strain UC6164,8 µg/mL
same,MIC,[6],16 µg/mL
same,MIC,[7]; strain ATCC 27853,> 32 µg/mL
same,MIC,[8]; strain UC6093,4 µg/mL
same,MIC,[8]; strain UC6097,2 µg/mL
same,MIC,[8]; strain UC9203,2 µg/mL
same,MIC,[9]; strain UC3947,2 µg/mL
same,MIC,[9]; strain UC6892,> 32 µg/mL
same,MIC,[10],> 32 µg/mL
same,MIC,[11],≤ 0.06 µg/mL
same,MIC,[12],32 µg/mL
same,MIC,[13],32 µg/mL
same,MIC,[14],≤ 0.06 µg/mL
same,MIC,[15]; strain UC3946,0.25 µg/mL
same,MIC,[15]; strain UC6159,> 32 µg/mL
same,MIC,[16],32 µg/mL
same,MIC,[17],0.5 µg/mL
"CO/N=C(\C(=O)N[C@@H]1C(=O)N2C(C(=O)O)=C(CSSCC3=C(C(=O)O)N4C(=O)[C@@H](NC(=O)/C(=N\OC)c5csc(N)n5)[C@H]4SC3)CS[C@H]12)c1csc(N)n1 [Example 5, 1,1-bis-(7β)-(2-(2-amino-1,3-thiazol-4-yl)-(Z)-2-(methoxyimino)acetamido-4-carboxy-3-cephem-3-yl)dimethyldisulfide]",MIC,"[1]; Pasteurella, strain UC6531, read-out: MIC",≤ 0.06 µg/mL
same,MIC,"[1]; Pasteurella, strain UC6532, read-out: MIC",≤ 0.06 µg/mL
same,MIC,"[1]; Pasteurella, strain UC9582, read-out: MIC",≤ 0.06 µg/mL
same,MIC,"[2]; Pasteurella multocida, read-out: MIC",≤ 0.06 µg/mL
same,MIC,"[3]; Escherichia coli, strain UC3784, read-out: MIC",2 µg/mL
same,MIC,"[3]; Escherichia coli, strain UC6720, read-out: MIC",2 µg/mL
same,MIC,"[3]; Escherichia coli, strain UC9670, read-out: MIC",2 µg/mL
same,MIC,"[4]; Salmonella enterica, CHOLERAESUIS / UC6073, strain UC6073, read-out: MIC",4 µg/mL
same,MIC,"[4]; Salmonella enterica, CHOLERAESUIS / UC6077, strain UC6077, read-out: MIC",8 µg/mL
same,MIC,"[5]; Salmonella enterica, TYPHIMURIUM / UC6162, strain UC6162, read-out: MIC",2 µg/mL
same,MIC,"[5]; Salmonella enterica, TYPHIMURIUM / UC6164, strain UC6164, read-out: MIC",2 µg/mL
same,MIC,"[6]; Bordetella bronchiseptica, read-out: MIC",> 32 µg/mL
same,MIC,"[7]; Pseudomonas aeruginosa, strain ATCC27853, read-out: MIC",> 32 µg/mL
same,MIC,"[8]; Staphylococcus aureus, strain UC6093, read-out: MIC",16 µg/mL
same,MIC,"[8]; Staphylococcus aureus, strain UC6097, read-out: MIC",16 µg/mL
same,MIC,"[8]; Staphylococcus aureus, strain UC9203, read-out: MIC",16 µg/mL
same,MIC,"[9]; Streptococcus agalactiae, strain UC3947, read-out: MIC",≤ 0.06 µg/mL
same,MIC,"[9]; Streptococcus agalactiae, strain UC6892, read-out: MIC",≤ 0.06 µg/mL
same,MIC,"[10]; Streptococcus equinus, read-out: MIC",≤ 0.06 µg/mL
same,MIC,"[11]; Streptococcus dysgalactiae, read-out: MIC",≤ 0.06 µg/mL
same,MIC,"[12]; Enterococcus faecium, read-out: MIC",> 32 µg/mL
same,MIC,"[13]; Enterococcus faecalis, read-out: MIC",> 32 µg/mL
same,MIC,"[14]; Streptococcus suis, read-out: MIC",≤ 0.06 µg/mL
same,MIC,"[15]; Streptococcus uberis, strain UC3946, read-out: MIC",0.25 µg/mL
same,MIC,"[15]; Streptococcus uberis, strain UC6159, read-out: MIC",16 µg/mL
same,MIC,[16]; read-out: MIC,0.25 µg/mL
same,MIC,"[17]; Micrococcus luteus, read-out: MIC",≤ 0.06 µg/mL
